Reference: PMC12293048, “New Benzimidazole 3′-Deoxynucleosides: Synthesis and Antiherpes Virus Properties” (Biomolecules, 2025)
“And” between values parts separate entries of the source, which are not always exact repeats. Identical values can stand only once. Like-named read-outs stand apart in the source and are kept apart here.

Key:
HSV-1/L2/R^ACV = test: microbe, parasite or virus in culture; format: cell-based, herpes simplex virus 1; details: for IC95: Human alphaherpesvirus 1, Vero C1008, read-out: IC95 HSV-1/L2/R^ACV, CPE inhibited almost completely, Vero E6, MOI 0.01, acyclovir-resistant strain
Method: (§1) Vero 6 cells for determining cytotoxicity and antiviral activity were cultured according to the method described in [29].
In 96-well plastic plates with the generated cell monolayer, serial dilutions of the compounds were prepared at […] 1:2 with the maintenance medium (Eagle′s medium and medium 199, mixed in a ratio 1:1). Vero E6 cells were then infected with the infection material at an MOI of 0.01 PFU/cell; incubation was performed at 37 °C in an atmosphere of 5% CO2. Cytotoxicity was determined quantitatively by the trypan blue exclusion method and expressed as CD50: the concentration of the drug at which 50% of cells die after 72 h. […] The duration of incubation was 48 h and 72 h for MOI […], respectively. […] An antiviral activity was assessed by determining ID50 and ID95 (concentrations of compounds that inhibit the development of virus-induced CPE as compared with the control by 50% and almost completely). […] The results of three independent experiments are shown in Table S1 (Supplementary Materials).

HSV-1/L2 = test: CPE inhibition assay, HSV-1 reference strain L2 in Vero E6 cells; format: cell-based, herpes simplex virus 1; details: for IC95: Human alphaherpesvirus 1, Vero C1008, CPE inhibited almost completely
Method: as §1
Vero E6 cells were then infected with the infection material at an MOI of 0.01 PFU/cell; incubation was performed at 37 °C in an atmosphere of 5% CO2. […] The duration of incubation was 48 h and 72 h for MOI 0.01 PFU/mL, respectively. […] The results of three independent experiments are shown in Table S1 (Supplementary Materials).

Vero E6 cells = test: Cytotoxicity, trypan blue exclusion; format: cell-based; details: for CD50: 50% cytotoxic concentration, Vero E6 cells, 72 h; for MTC (maximal tolerable concentration): highest concentration that does not cause death of Vero E6 cells
HSV-1 = details: cited from earlier work
HCMV = details: cited from earlier work
[1] = Human alphaherpesvirus 1, Vero C1008, read-out: IC50 HSV-1/L2/R^ACV, CPE inhibition by 50%, Vero E6, MOI 0.01, acyclovir-resistant TK-negative strain
[2] = Human alphaherpesvirus 1, Vero C1008, read-out: IC50 HSV-1/L2, CPE inhibition by 50%, Vero E6, MOI 0.01
[3] = read-out: IC50 HSV-1/L2, CPE inhibition by 50%, Vero E6, MOI 0.01

c1ccc2[nH]cnc2c1 [Compound 1, Benzimidazole]
IC50 (HSV-1/L2/R^ACV; [1]): 1060 µM | IC95 (HSV-1/L2; Vero E6, MOI 0.01): 4240 µM | IC50 (HSV-1/L2; [2]): 1060 µM | IC50 (HSV-1/L2; [3]): 1060 µM | CD50 (Vero E6 cells): 6313.85 ± 167.47 µM | MTC (maximal tolerable concentration) (Vero E6 cells): 4235.49 µM

Fc1cc2nc[nH]c2cc1F [Compound 2, 5,6-Difluorobenzimidazole]
IC50 (HSV-1/L2/R^ACV; [1]): 406 µM | IC95 (HSV-1/L2; Vero E6, MOI 0.01): 1620 µM | IC50 (HSV-1/L2; [2]): 203 µM | IC50 (HSV-1/L2; [3]): 203 µM | CD50 (Vero E6 cells): 2433.81 ± 37.72 µM | MTC (maximal tolerable concentration) (Vero E6 cells): 1623.06 µM

Fc1cc(F)c2[nH]cnc2c1 [Compound 3, 4,6-Difluorobenzimidazole]
IC50 (HSV-1/L2/R^ACV; [1]): 812 µM | IC95 (HSV-1/L2; Vero E6, MOI 0.01): 1620 µM | IC50 (HSV-1/L2; [2]): 812 µM | IC50 (HSV-1/L2; [3]): 812 µM | CD50 (Vero E6 cells): 2489.32 ± 92.46 µM | MTC (maximal tolerable concentration) (Vero E6 cells): 811.53 µM

Fc1cc2nc[nH]c2c(F)c1F [Compound 4, 4,5,6-Trifluorobenzimidazole]
IC50 (HSV-1/L2/R^ACV; [1]): 363 µM | IC95 (HSV-1/L2; Vero E6, MOI 0.01): 1450 µM | IC50 (HSV-1/L2; [2]): 363 µM | IC50 (HSV-1/L2; [3]): 363 µM | CD50 (Vero E6 cells): 2179.98 ± 27.03 µM | MTC (maximal tolerable concentration) (Vero E6 cells): 1453.32 µM

COc1c(F)cc2nc[nH]c2c1F [Compound 5, 4,6-Difluoro-5-methoxybenzimidazole]
IC50 (HSV-1/L2/R^ACV; [1]): 1360 µM | IC95 (HSV-1/L2; Vero E6, MOI 0.01): 2720 µM | IC50 (HSV-1/L2; [2]): 1020 µM | CD50 (Vero E6 cells): 2909.48 ± 123.18 µM | MTC (maximal tolerable concentration) (Vero E6 cells): 1358.40 µM

Nc1nc2ccccc2[nH]1 [Compound 6, 2-aminobenzimidazole]
IC50 (HSV-1/L2/R^ACV; [1]): 705 µM | IC95 (HSV-1/L2; Vero E6, MOI 0.01): 939 µM | IC50 (HSV-1/L2; [2]): 470 µM | IC50 (HSV-1/L2; [3]): 470 µM | CD50 (Vero E6 cells): 1422.89 ± 18.04 µM | MTC (maximal tolerable concentration) (Vero E6 cells): 939.43 µM

COc1cc2nc(N)[nH]c2cc1F [Compound 7, 2-amino-5-fluoro-6-methoxybenzimidazole]
IC50 (HSV-1/L2/R^ACV; [1]): 173 µM | IC95 (HSV-1/L2; Vero E6, MOI 0.01): 690 µM | IC50 (HSV-1/L2; [2]): 173 µM | IC50 (HSV-1/L2; [3]): 173 µM | CD50 (Vero E6 cells): 2165.79 ± 33.74 µM | MTC (maximal tolerable concentration) (Vero E6 cells): 1380.68 µM

Nc1nc2cc(F)c(F)cc2[nH]1 [Compound 8, 2-Amino-5,6-difluorobenzimidazole]
IC50 (HSV-1/L2/R^ACV; [1]): 370 µM | IC95 (HSV-1/L2; Vero E6, MOI 0.01): 739 µM | IC50 (HSV-1/L2; [2]): 370 µM | IC50 (HSV-1/L2; [3]): 370 µM | CD50 (Vero E6 cells): 1659.39 ± 60.16 µM | MTC (maximal tolerable concentration) (Vero E6 cells): 739.43 µM

OC[C@@H]1C[C@@H](O)[C@H](n2cnc3ccccc32)O1 [Compound 9, 1-(β-D-3′-Deoxyribofuranosyl)benzimidazole]
IC50 (HSV-1/L2/R^ACV; [1]): 1250 µM | IC95 (HSV-1/L2/R^ACV): 5020 µM | IC95 (HSV-1/L2; Vero E6, MOI 0.01): 2510 µM | IC50 (HSV-1/L2; [2]): 626 µM | IC50 (HSV-1/L2; [3]): 626 µM | CD50 (Vero E6 cells): > 5019.25 µM | MTC (maximal tolerable concentration) (Vero E6 cells): 2505.13 µM

OC[C@@H]1C[C@@H](O)[C@H](n2cnc3cc(F)c(F)cc32)O1 [Compound 10, 5,6-Difluoro-1-(β-D-3′-deoxyribofuranosyl)benzimidazole]
IC50 (HSV-1/L2/R^ACV; [1]): 1480 µM | IC95 (HSV-1/L2/R^ACV): ≥ 1970 µM | IC95 (HSV-1/L2; Vero E6, MOI 0.01): 985 µM | IC50 (HSV-1/L2; [2]): 246 µM | IC50 (HSV-1/L2; [3]): 246 µM | CD50 (Vero E6 cells): 2901.81 ± 60.28 µM | MTC (maximal tolerable concentration) (Vero E6 cells): 1970.86 µM

OC[C@@H]1C[C@@H](O)[C@H](n2cnc3c(F)cc(F)cc32)O1 [Compound 11a, 4,6-difluoro-1-(β-D-3′-deoxyribofuranosyl)benzimidazole]
IC50 (HSV-1/L2/R^ACV; [1]): < 2010 µM | IC95 (HSV-1/L2/R^ACV): 2010 µM | IC95 (HSV-1/L2; Vero E6, MOI 0.01): 1000 µM | IC50 (HSV-1/L2; [2]): 251 µM | IC50 (HSV-1/L2; [3]): 251 µM | CD50 (Vero E6 cells): > 2007.37 µM | MTC (maximal tolerable concentration) (Vero E6 cells): 1003.68 µM

OC[C@@H]1C[C@@H](O)[C@H](n2cnc3c(F)c(F)c(F)cc32)O1 [Compound 12a, 4,5,6-trifluoro-1-(β-D-3′-deoxyribofuranosyl)benzimidazole]
IC50 (HSV-1/L2/R^ACV; [1]): 494 µM | IC95 (HSV-1/L2/R^ACV): 2000 µM | IC95 (HSV-1/L2; Vero E6, MOI 0.01): 1000 µM | IC50 (HSV-1/L2; [2]): 250 µM | IC50 (HSV-1/L2; [3]): 250 µM | CD50 (Vero E6 cells): ≥ 3999.31 µM | MTC (maximal tolerable concentration) (Vero E6 cells): 1999.65 µM

COc1c(F)cc2c(ncn2[C@@H]2O[C@H](CO)C[C@H]2O)c1F [Compound 13, 4,6-Difluoro-5-metoxy-1-(β-D-3′-deoxyribofuranosyl)benzimidazole]
IC50 (HSV-1/L2/R^ACV; [1]): 3000 µM | IC95 (HSV-1/L2; Vero E6, MOI 0.01): 3330 µM | IC50 (HSV-1/L2; [2]): 3000 µM | MTC (maximal tolerable concentration) (Vero E6 cells): 1665.22 µM

Nc1nc2cc(F)c(F)cc2n1[C@@H]1O[C@H](CO)C[C@H]1O [Compound 16, 2-Amino-5,6-difluoro-1-(β-D-3′-deoxyribofuranosyl)benzimidazole]
IC50 (HSV-1/L2/R^ACV; [1]): 996 µM | IC95 (HSV-1/L2/R^ACV): > 1990 µM | IC95 (HSV-1/L2; Vero E6, MOI 0.01): > 1990 µM | IC50 (HSV-1/L2; [2]): 996 µM | IC50 (HSV-1/L2; [3]): 996 µM | CD50 (Vero E6 cells): 3315.58 ± 141.99 µM | MTC (maximal tolerable concentration) (Vero E6 cells): 1991.35 µM

OC[C@H]1O[C@@H](n2cnc3cc(Cl)c(Cl)cc32)[C@H](O)[C@@H]1O [DRB, 5,6-dichloro-1-(β-D-ribofuranosyl)benzimidazole]
IC50 (HSV-1): 30 µM | IC50 (HCMV): 42 µM

Nc1nc2c(ncn2COCCO)c(=O)[nH]1 [acyclovir, reference compound]
IC50 (HSV-1/L2/R^ACV; Human alphaherpesvirus 1, Vero C1008, virus variant profoundly resistant to acyclovir): > 100 µg/mL and > 444 µM

NC(=O)c1ncn([C@@H]2O[C@H](CO)[C@@H](O)[C@H]2O)n1 [ribavirin, reference compound]
IC50 (HSV-1/L2/R^ACV; [1]): 512 µM | IC95 (HSV-1/L2; Vero E6, MOI 0.01): 2050 µM | MTC (maximal tolerable concentration) (Vero E6 cells): 4095.00 µM
